Experimental data: patent US20170360013A1, “ANIMAL MODEL FOR DRY EYE AND METHODS OF USE OF SUCH ANIMALS” (REGENERON PHARMACEUTICALS, INC., priority 2014, published 2017)

Tests used:
C57BL/6 mice [1] = assay: Flow cytometry of extraorbital lacrimal glands (CD45+ immune cell infiltration); assay type: in vivo, mouse; details: after 4 weeks of treatment; relative to controls
Protocol: (§1) Dry eye model induction: 27 adult, male C57BL/6 mice were randomized to naïve (untreated), sham (receiving surgery equivalent to surgery for implantation of pump, but without actual implantation of pump and without scopolamine or BAC treatment), benzalkonium chloride (BAC), scopolamine (Scop) or BAC plus Scop groups.
(§2) Implantation of scopolamine pump. For Scop group, mice were subcutaneously implanted with an osmotic pump filled with Scop (2 mg/20 g body weight/day) lasting for 4 weeks. Mice were anesthetized with ketamine (120 mg/kg, IP) and xylazine (5 mg/kg, IP). Using aseptic microsurgical technique and an operating microscope, a mini-osmotic pump was placed beneath the back skin, then the skin was sutured, and erythromycin ophthalmic ointment was applied to the wound to prevent infection.
(§3) Benzalkonium chloride treatment. For BAC treatment, 1 μl of 0.1-0.2% BAC was topically administrated on the right eye ocular surface, twice daily, 2 days per week, for four weeks.
Quantification of corneal angiogenesis, lymphangiogenesis and lacrimal gland infiltration. On day 28 after induction of dry eye, under deep ketamine (120 mg/kg, IP) and xylazine (5 mg/kg, IP) anesthesia, eyeballs were collected in 4% paraformaldehyde (PFA) for corneal angiogenesis and lymphangiogenesis studies. […]
Flow cytometry. […] Data was analyzed by FlowJo (Tree Star, Ashland, Oreg.).

C57BL/6 mice [2] = assay: Tear production measurement (phenol red thread) in dry eye model induction; assay type: in vivo, mouse; details: over four weeks of administration; Scop 2 mg/20 g body weight/day by s.c. osmotic pump; BAC 1 μl of 0.1-0.2% topical, twice daily, 2 days per week; relative to controls or BAC alone; p<0.001
Protocol: as §1, §2, §3
Tear production measurement and corneal fluorescein staining score. Tear production and corneal fluorescein staining were performed once per week, on day 7, 14, 21, and 28. […] Five minutes after application, corneal fluorescein staining was scored under a microscope using the National Eye Institute (NEI) scoring standards.

benzalkonium chloride [BAC]
percent of CD45+ cells in extraorbital lacrimal glands (C57BL/6 mice [1]): increased

CN1[C@@H]2C[C@@H](OC(=O)[C@H](CO)c3ccccc3)C[C@H]1[C@@H]1O[C@@H]12 [Scop, scopolamine]
tear production (C57BL/6 mice [2]): significantly decreases | percent of CD45+ cells in extraorbital lacrimal glands (C57BL/6 mice [1]): increased
